Assay results: patent publication US6007814A, “Therapeutic uses of the hypervariable region of monoclonal antibody M195 and constructs thereof” (priority 1992, dated 1999)

How the values were obtained:
Assay type in all cases: cell-based, human
BFU-E = test: Clonogenic assay of normal bone marrow progenitors, BFU-E; details: normal BM; 4HC 100 μM, VP-16 5 μg/ml; 1 hr at 37° C.; scored at day 14; mean ± SD vs control cultures
Experimental: (§1) Bone Marrow Cells. Bone marrow was aspirated from the posterior iliac crest of healthy volunteers after obtaining written informed consent and BM mononuclear cells were collected after Ficoll-Hypaque gradient (1.077 g/cm3).
(§2) Incubation Procedure and Culture Techniques. Tumor cells and normal BM cells were adjusted to a concentration of 2×10^6 /ml and 20×10^6 /ml, respectively. […] After completion of 1 hr incubation at 37° C., the cells were put on ice for five minutes and washed twice with RPMI supplemented with FCS. To simulate "ex vivo" BM purging conditions, the HL-60 cells were also incubated together with irradiated (3,000 cGy) BM cells (1:10 ratio). […] Cells were incubated at 37° C. in humidified atmosphere of 5% of CO2 in air and scored for colonies (>50 cells) after 7 days of incubation using an inverted microscope.
(§3) After treatment, normal bone marrow cells were assayed for colonies derived from CFU-GM, BFU-E and CFU-GEM as already described (150). […] Quadruplicate cultures were incubated as described above and the colonies were scored after 14 days of incubation. […] Colonies (>20 cells) were scored after 10 days of incubation.
(§4) DATA ANALYSIS. All experiments were performed three or more times and the mean+standard deviation (SD) values of each experiment were calculated. Colony counts after drug treatment were expressed as a percent of the untreated control cells.

HL-60 cell line = test: HL-60 clonogenic assay (colony-forming inhibition) after ex vivo purging treatment; details: 4HC 100 μM, VP-16 5 μg/ml, 1 hr incubation at 37° C., colonies scored after 7 days, mean + SD
Experimental: Human Cell Line. HL-60 is a human acute promyelocytic leukemia cell line growing with a doubling time of 24 hours and a plating efficiency of 7-12% (148). The cell line was maintained in exponential growth in RPMI-1640 supplemented with 10% fetal calf serum (FCS-Hyclone, Logan, U.S.A.) 1% L-Glutamine at 37° C. in a humidified atmosphere of 5% CO2 air. Cell viability was always higher than 95% and cells were free of mycoplasma contamination.
as §2, §4

CFU-GM = test: Clonogenic assay of normal bone marrow progenitors, CFU-GM; details: normal BM; 4HC 100 μM, VP-16 5 μg/ml; 1 hr at 37° C.; scored at day 14; mean ± SD vs control cultures
Experimental: as §1, §2, §3, §4

## O=P1(N(CCCl)CCCl)NC(OO)CCO1 (stereo not drawn) [4HC]
BFU-E
  COLONY FORMING INHIBITION BFU-E: 80.3 ± 12.5%
HL-60 cell line
  colony-forming inhibition: 99.5+0.8%
CFU-GM
  COLONY FORMING INHIBITION CFU-GM: 84 ± 10%
